ChEMBL document CHEMBL1201862, “PubChem BioAssay data set” (2004)
Active and inactive are the calls of the source.

Legend:
[1] = biological target: T1, Apoptotic protease-activating factor 1 (Homo sapiens, UniProt O14727); test: SAR analysis of small molecule Activators of Apaf-1 in a Fluorescent assay.; format: functional; conditions: read-out: EC50_Mean;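 also: caspase-3 cleavage of fluorogenic Rh110 DEVD substrate downstream of apoptosome activation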
T1 sequence (O14727 whole entry): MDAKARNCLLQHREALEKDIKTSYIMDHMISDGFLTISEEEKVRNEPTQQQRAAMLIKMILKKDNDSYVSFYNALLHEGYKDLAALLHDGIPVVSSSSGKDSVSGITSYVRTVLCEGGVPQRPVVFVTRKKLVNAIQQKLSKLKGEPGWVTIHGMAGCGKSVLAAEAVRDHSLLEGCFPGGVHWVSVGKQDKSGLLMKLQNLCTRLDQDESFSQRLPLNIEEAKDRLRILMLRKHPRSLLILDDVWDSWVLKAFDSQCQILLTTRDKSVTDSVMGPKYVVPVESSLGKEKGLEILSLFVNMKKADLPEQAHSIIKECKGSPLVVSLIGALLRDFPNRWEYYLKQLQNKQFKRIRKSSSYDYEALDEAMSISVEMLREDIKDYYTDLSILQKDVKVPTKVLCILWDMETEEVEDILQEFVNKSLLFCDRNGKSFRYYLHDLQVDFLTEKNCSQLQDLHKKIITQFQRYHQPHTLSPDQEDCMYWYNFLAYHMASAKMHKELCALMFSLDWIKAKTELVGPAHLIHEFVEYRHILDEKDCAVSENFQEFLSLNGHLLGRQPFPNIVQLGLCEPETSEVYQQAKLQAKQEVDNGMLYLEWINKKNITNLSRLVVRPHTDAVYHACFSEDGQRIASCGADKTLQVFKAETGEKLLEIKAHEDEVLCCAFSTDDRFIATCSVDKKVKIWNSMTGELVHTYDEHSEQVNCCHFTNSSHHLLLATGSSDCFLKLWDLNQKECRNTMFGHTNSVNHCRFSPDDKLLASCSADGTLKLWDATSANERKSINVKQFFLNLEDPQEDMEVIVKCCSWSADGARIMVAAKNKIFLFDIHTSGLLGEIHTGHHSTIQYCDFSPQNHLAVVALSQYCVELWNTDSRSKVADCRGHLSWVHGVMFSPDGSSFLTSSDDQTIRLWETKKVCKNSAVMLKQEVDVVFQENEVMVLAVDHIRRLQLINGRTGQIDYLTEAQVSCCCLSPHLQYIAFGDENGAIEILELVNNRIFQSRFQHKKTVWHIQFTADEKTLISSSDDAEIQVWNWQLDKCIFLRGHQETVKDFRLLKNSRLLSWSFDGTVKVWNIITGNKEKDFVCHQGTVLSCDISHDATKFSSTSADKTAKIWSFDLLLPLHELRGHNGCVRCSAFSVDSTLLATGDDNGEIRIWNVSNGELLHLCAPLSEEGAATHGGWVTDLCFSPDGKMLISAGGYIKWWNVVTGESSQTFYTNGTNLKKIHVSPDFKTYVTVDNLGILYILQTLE

Melanocortin receptor 4 = Melanocortin receptor 4 (Homo sapiens, UniProt P32245); format: functional, cell-based;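 also: Cell-based assay with luminescence read-out, confirmatory dose-response testing for agonist activity of biased ligands at MC4R; human U2OS cells with tagged receptor and beta-arrestin; potency of agonists that increase receptor coupling to beta-arrestin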
Sequence of Melanocortin receptor 4 (P32245 whole entry): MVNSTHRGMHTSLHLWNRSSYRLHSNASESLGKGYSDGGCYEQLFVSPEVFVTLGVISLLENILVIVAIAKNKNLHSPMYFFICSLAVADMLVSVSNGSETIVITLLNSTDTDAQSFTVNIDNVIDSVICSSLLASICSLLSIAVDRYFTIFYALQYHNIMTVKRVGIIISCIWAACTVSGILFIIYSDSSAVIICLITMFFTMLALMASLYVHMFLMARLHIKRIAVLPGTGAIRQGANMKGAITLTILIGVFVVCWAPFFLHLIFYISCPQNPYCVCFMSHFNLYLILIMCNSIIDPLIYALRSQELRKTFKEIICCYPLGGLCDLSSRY

[2] = biological target: DNA repair and recombination protein RAD54-like (Homo sapiens, UniProt Q92698); test: RAD54 Holliday junction migration blockers – biochemical, fluorescence, cherry-picked samples, dose series, confirmation (AID 651657); format: functional
Sequence of DNA repair and recombination protein RAD54-like (Q92698 whole entry): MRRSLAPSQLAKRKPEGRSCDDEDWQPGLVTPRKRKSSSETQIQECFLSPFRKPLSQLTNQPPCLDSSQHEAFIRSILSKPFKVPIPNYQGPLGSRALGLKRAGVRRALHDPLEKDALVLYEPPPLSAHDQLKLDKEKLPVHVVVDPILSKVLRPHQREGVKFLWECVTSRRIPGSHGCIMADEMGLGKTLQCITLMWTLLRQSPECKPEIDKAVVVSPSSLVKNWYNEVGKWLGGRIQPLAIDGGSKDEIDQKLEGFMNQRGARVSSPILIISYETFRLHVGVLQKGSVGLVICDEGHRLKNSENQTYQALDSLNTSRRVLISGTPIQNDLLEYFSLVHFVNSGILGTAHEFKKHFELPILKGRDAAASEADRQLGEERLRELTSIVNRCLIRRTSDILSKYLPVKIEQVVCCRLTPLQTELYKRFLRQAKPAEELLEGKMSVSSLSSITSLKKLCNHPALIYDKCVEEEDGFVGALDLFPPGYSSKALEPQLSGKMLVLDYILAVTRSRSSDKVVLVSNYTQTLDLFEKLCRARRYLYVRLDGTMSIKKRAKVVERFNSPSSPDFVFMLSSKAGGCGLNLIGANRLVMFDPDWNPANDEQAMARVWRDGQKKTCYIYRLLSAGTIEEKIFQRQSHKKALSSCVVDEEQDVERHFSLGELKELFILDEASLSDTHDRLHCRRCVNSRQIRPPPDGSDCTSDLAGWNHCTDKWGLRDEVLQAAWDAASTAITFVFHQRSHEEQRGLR

[3] = biological target: T2, DNA repair protein RAD52 homolog (Homo sapiens, UniProt P43351); format: functional, biochemical
T2 sequence (P43351 whole entry): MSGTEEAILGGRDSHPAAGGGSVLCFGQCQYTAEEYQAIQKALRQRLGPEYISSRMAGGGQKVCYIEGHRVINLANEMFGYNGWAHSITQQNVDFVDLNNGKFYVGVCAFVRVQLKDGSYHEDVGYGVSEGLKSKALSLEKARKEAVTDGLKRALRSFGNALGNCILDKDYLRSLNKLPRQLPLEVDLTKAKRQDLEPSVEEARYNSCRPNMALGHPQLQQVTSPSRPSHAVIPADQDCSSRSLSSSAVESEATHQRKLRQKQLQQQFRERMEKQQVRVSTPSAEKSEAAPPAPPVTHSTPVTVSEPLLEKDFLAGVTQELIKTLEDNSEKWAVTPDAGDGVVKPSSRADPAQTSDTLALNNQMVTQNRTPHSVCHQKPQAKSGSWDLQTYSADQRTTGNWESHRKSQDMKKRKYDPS

[4] = Vero cell cytotoxicity, cytotoxicity control for M. tuberculosis inhibitor project, purified and synthesized samples, set 3 (AID 504684); format: functional
cells = format: functional
[5] = nonselective StAR promoter luciferase inhibitors – cell-based, luminescence, luciferase reporter, counter-screen for LRH-1 inverse agonist project, dose response (AID 651969); format: functional
Steroidogenic factor 1 = Steroidogenic factor 1 (Homo sapiens, UniProt Q13285); test: Counterscreen for inverse agonists of the liver receptor homolog-1 (LRH-1; NR5A2): Luminescence-based cell-based high throughput dose response assay to identify inverse agonists of the Steroidogenic Factor 1 Nuclear Receptor (SF1; NR5A1).; format: functional
Sequence of Steroidogenic factor 1 (Q13285 whole entry): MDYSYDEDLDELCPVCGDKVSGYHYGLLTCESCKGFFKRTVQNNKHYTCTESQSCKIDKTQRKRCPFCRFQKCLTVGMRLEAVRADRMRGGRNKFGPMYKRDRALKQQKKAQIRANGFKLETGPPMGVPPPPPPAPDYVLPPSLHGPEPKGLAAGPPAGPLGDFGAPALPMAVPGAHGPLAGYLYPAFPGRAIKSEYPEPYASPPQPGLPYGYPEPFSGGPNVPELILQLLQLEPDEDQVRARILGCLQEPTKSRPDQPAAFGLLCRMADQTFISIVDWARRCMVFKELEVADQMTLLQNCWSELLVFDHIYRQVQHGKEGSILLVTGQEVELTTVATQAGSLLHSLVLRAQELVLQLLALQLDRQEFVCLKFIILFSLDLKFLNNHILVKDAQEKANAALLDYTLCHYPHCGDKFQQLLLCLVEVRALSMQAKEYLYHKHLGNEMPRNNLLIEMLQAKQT

[6] = biological target: Nuclear receptor subfamily 5 group A member 2 (Homo sapiens, UniProt O00482); format: functional, cell-based;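 also: HEK293T cells transfected with LRH-1 and a StAR promoter luciferase reporter; potency for inhibitors that lower LRH-1 driven reporter light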
Sequence of Nuclear receptor subfamily 5 group A member 2 (O00482 whole entry): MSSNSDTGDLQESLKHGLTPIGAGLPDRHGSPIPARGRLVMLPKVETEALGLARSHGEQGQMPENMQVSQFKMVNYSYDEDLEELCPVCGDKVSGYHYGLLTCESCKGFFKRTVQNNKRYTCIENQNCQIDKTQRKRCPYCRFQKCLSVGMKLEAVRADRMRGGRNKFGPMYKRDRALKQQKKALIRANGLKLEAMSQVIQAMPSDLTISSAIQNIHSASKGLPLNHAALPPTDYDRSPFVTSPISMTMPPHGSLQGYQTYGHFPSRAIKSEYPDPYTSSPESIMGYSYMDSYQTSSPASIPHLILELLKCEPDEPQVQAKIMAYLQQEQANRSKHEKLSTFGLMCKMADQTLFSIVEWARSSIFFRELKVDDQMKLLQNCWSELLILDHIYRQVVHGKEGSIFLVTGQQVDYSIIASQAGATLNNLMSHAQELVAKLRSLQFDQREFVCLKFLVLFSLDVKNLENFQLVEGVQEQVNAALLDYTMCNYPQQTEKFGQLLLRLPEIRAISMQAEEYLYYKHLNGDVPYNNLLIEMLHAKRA

[7] = biological target: Palmitoyl-protein thioesterase ABHD10, mitochondrial (Mus musculus, UniProt Q6PE15); test: Late stage assay provider results from the probe development effort to identify inhibitors of PME-1: fluorescence-based dose response biochemical gel-based competitive Activity-Based Protein Profiling (ABPP) inhibition of ABHD10 Set 1.; format: functional
Sequence of Palmitoyl-protein thioesterase ABHD10, mitochondrial (Q6PE15 whole entry): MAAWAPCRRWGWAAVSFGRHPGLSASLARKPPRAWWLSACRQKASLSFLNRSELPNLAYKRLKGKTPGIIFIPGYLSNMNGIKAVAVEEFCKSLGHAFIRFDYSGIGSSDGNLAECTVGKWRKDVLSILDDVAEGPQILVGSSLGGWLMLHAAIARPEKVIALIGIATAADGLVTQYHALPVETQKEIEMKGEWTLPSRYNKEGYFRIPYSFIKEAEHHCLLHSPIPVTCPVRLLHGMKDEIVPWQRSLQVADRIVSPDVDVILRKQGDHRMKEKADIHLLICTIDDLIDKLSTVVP

## CCC(C)(C)c1ccc(O)c(N2CC(C(=O)O)CC2=O)c1 (stereo not given)
[1]
  EC50: > 100 µM (inactive)

## CC(C)CC(N)c1csc(Nc2ccc(C(F)(F)F)cn2)n1 (stereo not given)
Melanocortin receptor 4
  EC50: > 89.2 µM (inactive)

## CN(C)CCNC(=O)c1cccc(-c2cnc3c(NC=O)cc(-c4cccc(F)c4)cn23)c1
[2]
  AC50: 22.4 µM (active)
[3]
  AC50: 5.99 µM (active)

## COC(=O)CCc1nc2c(C#N)c(-c3ccc(Cl)cc3)ccn2n1
[4]
  CC50: > 100 µM (active)
cells
  IC50: 5.43 µM (active)

## COc1ccc(NC(=O)CSc2nnc3ccc(-c4cccnc4)nn23)cc1OC
[5]
  IC50: 35.9 µM (inactive)
Steroidogenic factor 1
  IC50: 35.9 µM (inactive)
[6]
  IC50: 35.9 µM (inactive)

## CC[C@@]1(c2ccc(Cl)cc2)C(=O)N(C(=O)OC)N1C(=O)OC
[7]
  IC50: 0.103 µM (active)
